Measurements as given in patent US12728118B2, “Methods and compositions for the treatment of corneal endothelium disorders” (The Schepens Eye Research Institute, Inc., priority 2020, dated 2026).
“Also recorded” adds a separate entry of the source.

What was measured:
[1] = tested on: corneal endothelial cell (CEnC); assay: UVA light-induced CEnC loss in NQO1+/+ and NQO1−/− female mice (mouse model of FECD), HRT imaging; assay type: in vivo
Experimental: A mouse model of FECD was generated by knocking out the NQO1 gene. […] NQO1+/+ and NQO1−/− female mice were irradiated with UVA (500 J/cm^2; time: 20 minutes) to initiate CEnC loss. Either TMS (1 mg/kg) or DMSO (vehicle) was intraperitoneally injected three times a week post-UVA irradiation until week 2 (FIG. 13A). Central corneal thickness (CCT) and Corneal endothelium (CE) imaging was performed using anterior segment-optical coherence tomography (OCT) and Heidelberg Retina Tomograph III (HRT III) prior to UVA irradiation and then at day 1, week 1, week 2, and week 4 post-UVA irradiation. The CE density (cells/mm^2) was quantified by a semi-automated cell counter inbuilt in HRT machine. A mouse model of FECD was generated by knocking out the NQO1 gene. […] NQO1+/+ and NQO1−/− female mice were irradiated with UVA (500 J/cm^2; time: 20 minutes) to initiate CEnC loss. Either berberine (10 mg/kg) or Vehicle (90% PBS+5% Tween-80+5% polyethylene glycol) was intraperitoneally injected immediately after and at week 1 post-UVA irradiation (FIG. 14A). Central corneal thickness (CCT) and corneal endothelium (CE) imaging was performed using anterior segment-optical coherence tomography (AS-OCT) and Heidelberg Retina Tomograph III (HRT III) prior to UVA irradiation and then at day 1, week 1, and week 2, post-UVA irradiation. The CE density (cells/mm^2) was quantified by a semi-automated cell counter inbuilt in HRT machine.

[2] = tested on: corneal endothelial (CE) cell; assay: UVA-induced corneal endothelial cell loss in female mice, CYP1B1 inhibitor treatment; assay type: in vivo, mouse
Experimental: FIG. 12. […] TMS was injected intraperitoneally (1.5 mg/kg) in female mice 1 h prior to 500 J/cm^2 UVA and 3 times a week thereafter for two weeks. Mice similarly injected with DMSO served as the control (n=5; white bar).

[3] = tested on: mouse corneal endothelial cell (MCEnC); assay: UVA-induced FECD mouse model: corneal endothelial cell density (in vivo confocal HRT / ZO-1 immunostaining); details: for increase in MCEnC density vs 1,000 J/cm^2 UVA irradiation only / MCEnC density: 2 mo, 1,000 J/cm^2 UVA; for increase in MCEnC density vs 1,000 J/cm^2 UVA irradiation only: NAC in drinking water 1 g/kg from 1 d prior
Experimental: (§1) Experimental Animals. C57BL/6 wild-type mice (male and female, 7 to 15 wk old; The Jackson Laboratory or Charles River) were used for this study. Mice were housed in a climate-controlled animal facility at the Schepens Eye Research Institute (Boston) and kept under cyclic light conditions with 12 h ON or OFF. Mice were anesthetized with a combined dose of ketamine (100 mg/kg) and xylazine (20 mg/kg) administered intraperitoneally. Female mice were irradiated at proestrus stage (61). For the NAC-treated group, mice were fed daily with drinking water containing 1 g of NAC/kg body weight from 1 d prior up to 3 mo post-UVA. All animal experiments were approved by the Institutional Animal Care and Use Committee and adhered to the ARVO Statement for the Use of Animals in Ophthalmic and Vision Research.
Human Corneal Endothelial Cell Culture. Telomerase and SV40 T antigen immortalized normal human CE cell lines HCEnC-21T and HCEnC-SV-67F-16, respectively, were previously generated in our laboratory (26, 62). HCEnC-21T cells were seeded in estrogen-free medium (phenol red-free OptiMEM-I; Thermo Fisher Scientific) with charcoal stripped FBS (HyClone), 200 mg/L calcium chloride (Sigma-Aldrich), 0.08% chondroitin sulfate (Sigma-Aldrich) and treated with 15 μM 4-OHE2 (Steraloids) in phenol red-free OptiMEM-I. UVA Irradiation of Mouse Cornea. A UVA LED light source (M365LP1; Thorlabs) with an emission peak of 365 nm light, 9 nm bandwidth (FWHM) and irradiance of 398 mW/cm 2 was focused to illuminate a 4-mm-diameter spot onto the mouse cornea. The energy was measured using a laser sensor (model L49 [150A]; Ophir), and the time of UVA exposure was adjusted to deliver the appropriate fluence (10 min 29 s for 250 J/cm^2, 20 min 57 s for 500 J/cm^2, 31 min 26 s for 750 J/cm^2, and 41 min 54 s for 1,000 J/cm^2). The right eye (OD) was irradiated while the contralateral eye (OS) was covered with heat retention drapes (SpaceDrapes, Inc.) to serve as untreated control. Mouse eyeballs from CYP1B1-null mice (age 8 to 12 wk, 10 females and 10 males) (31) were enucleated, rinsed with phosphate-buffered saline (PBS), and transported on ice, and cornea excision was performed within 24 h of the animal's death. Four 12-inch RPR-3500A UVA tubes (The Southern New England UV Co.) emitting 350 nm light (irradiance: 7.13 mW/cm 2) were used to irradiate the corneoscleral buttons placed in sterile PBS, with the endothelial side facing the source. The fluence delivered was 25 J/cm^2 (58 min 24 s at a distance of 10 cm). Irradiated corneas were snap-frozen, homogenized using a tissue grinder, and dissolved in methanol:water (2:1) for estrogen metabolite analysis.
The mouse was wrapped with heat retention drapes on the platform that holds the mouse body securely for imaging CE cells by laser scanning IVCM using the Heidelberg Retina Tomograph III (HRT III) with Rostock Corneal Module (RCM) (Heidelberg Engineering). The laser confocal microscope acquires 2D images that represent a coronal section of the cornea of 400×400 μm (160,000 μm^2) at a selectable corneal depth. Acquired images comprise 384×384 pixels and with a lateral resolution of 1 μm per pixel. Digital images were stored on a computer workstation at 3 frames per second.
Analysis of CE Cell Density. The CE density of HRT images acquired before UVA and post-UVA at 2 wk and 1 and 2 mo was analyzed by a semiautomated cell counter in the software Heidelberg Eye Explorer, version 1.3.0 (Heidelberg Engineering GmbH) inbuilt in HRT3. The mean cell density was calculated from 3 mice whose HRT images were counted by at least 2 observers. For each image, an area with at least 50 cells was selected. For CE density calculated from the images of 3 mice with ZO-1 immunostaining, cell count was performed manually by 2 blinded observers using a plug-in for ImageJ 1.46r (https://imagescience.org/meijering/software/imagescience; provided in the public domain by Wayne Rasband, NIH). […]

[4] = tested on: mouse cornea; assay: UVA-induced FECD mouse model: central corneal thickness (CCT) by OCT; assay type: in vivo
Experimental: as §1
(§2) Human Corneal Endothelial Cell Culture. Telomerase and SV40 T antigen immortalized normal human CE cell lines HCEnC-21T and HCEnC-SV-67F-16, respectively, were previously generated in our laboratory (26, 62). HCEnC-21T cells were seeded in estrogen-free medium (phenol red-free OptiMEM-I; Thermo Fisher Scientific) with charcoal stripped FBS (HyClone), 200 mg/L calcium chloride (Sigma-Aldrich), 0.08% chondroitin sulfate (Sigma-Aldrich) and treated with 15 μM 4-OHE2 (Steraloids) in phenol red-free OptiMEM-I. UVA Irradiation of Mouse Cornea. A UVA LED light source (M365LP1; Thorlabs) with an emission peak of 365 nm light, 9 nm bandwidth (FWHM) and irradiance of 398 mW/cm 2 was focused to illuminate a 4-mm-diameter spot onto the mouse cornea. The energy was measured using a laser sensor (model L49 [150A]; Ophir), and the time of UVA exposure was adjusted to deliver the appropriate fluence (10 min 29 s for 250 J/cm^2, 20 min 57 s for 500 J/cm^2, 31 min 26 s for 750 J/cm^2, and 41 min 54 s for 1,000 J/cm^2). The right eye (OD) was irradiated while the contralateral eye (OS) was covered with heat retention drapes (SpaceDrapes, Inc.) to serve as untreated control. […]
In vivo Imaging. […] CCT was measured using inbuilt software.

[5] = tested on: MCEnC mtDNA and nDNA; assay: DNA damage analysis using LA-qPCR in MCEnCs after UVA; assay type: in vivo, mouse; details: 1,000 J/cm^2 UVA at 3 mo
Experimental: as §1
(§3) Human Corneal Endothelial Cell Culture. Telomerase and SV40 T antigen immortalized normal human CE cell lines HCEnC-21T and HCEnC-SV-67F-16, respectively, were previously generated in our laboratory (26, 62). […] The energy was measured using a laser sensor (model L49 [150A]; Ophir), and the time of UVA exposure was adjusted to deliver the appropriate fluence (10 min 29 s for 250 J/cm^2, 20 min 57 s for 500 J/cm^2, 31 min 26 s for 750 J/cm^2, and 41 min 54 s for 1,000 J/cm^2). […]
(§4) DNA Damage Analysis Using LA-qPCR. […] DNA lesion frequencies were calculated as described (24). […]

[6] = tested on: mouse aqueous humor; assay: ROS production assay (H2O2, Amplex Red) in mouse aqueous humor after UVA; assay type: in vivo; details: 1 d post-UVA
Experimental: as §1, with “All animal experiments were approved by the Institutional Animal Care and Use Committee and adhered to the ARVO Statement for the Use of Animals in Ophthalmic and Vision Research.” left out
Human Corneal Endothelial Cell Culture. […] The energy was measured using a laser sensor (model L49 [150A]; Ophir), and the time of UVA exposure was adjusted to deliver the appropriate fluence (10 min 29 s for 250 J/cm^2, 20 min 57 s for 500 J/cm^2, 31 min 26 s for 750 J/cm^2, and 41 min 54 s for 1,000 J/cm^2). […]
ROS Production Assay. Extracellular H2O2 levels in the mouse aqueous humor (3 μL), collected using a capillary needle from the dilated mouse anterior chamber, were detected using the Amplex Red Assay Kit (Molecular Probes, Life Technologies) according to manufacturer's instructions. Fluorescence was measured with excitation and emission at 550 and 590 nm, respectively, using a microplate reader (Bio-Tek) with Gen5 software at 37° C.

[7] = tested on: MCEnCs; assay: TUNEL assay on whole mount mouse CE after UVA; assay type: in vivo; details: females and males; 3 mo post-UVA
Experimental: as §1, §3

[8] = tested on: HCEnC-21T cells; assay: LA-qPCR DNA lesion analysis in HCEnC-21T cells treated with 4-OHE2; assay type: cell-based, human; details: 15 μM 4-OHE2; 24 h
Experimental: as §2, §4

COc1ccc2cc3[n+](cc2c1OC)CCc1cc2c(cc1-3)OCO2 [berberine]
morphology of CEnC vs vehicle ([1]; NQO1+/+ and NQO1−/− female mice, berberine 10 mg/kg ip, week 2 post-UVA 500 J/cm^2): less irregular morphology
CEnC number vs vehicle ([1]; NQO1+/+ females, berberine 10 mg/kg ip, week 2 post-UVA): trend towards higher CEnC number
CEnC number vs vehicle ([1]; NQO1−/− females, berberine 10 mg/kg ip, week 2 post-UVA): significantly higher CEnC number
UVA light-induced CEnC loss ([1]; berberine 10 mg/kg, mouse model of Fuchs Dystrophy (FIG. 14 title)): rescues UVA light-induced CEnC loss

COc1cc(/C=C/c2ccc(OC)cc2OC)cc(OC)c1 [TMS, trans-2,3′,4,5′-tetramethoxystilbene]
morphology of CEnC vs vehicle ([1]; NQO1+/+ and NQO1−/− female mice, TMS 1 mg/kg ip three times a week, weeks 2 and 4 post-UVA 500 J/cm^2): less irregular morphology
CEnC number vs vehicle ([1]; NQO1+/+ and NQO1−/− female mice, TMS 1 mg/kg ip, weeks 2 and 4 post-UVA 500 J/cm^2): higher CEnC number; also recorded: reduces CEnC loss
corneal endothelial cell loss ([2]; 1 week, 2 weeks and 1 month post 500 J/cm^2, 1.5 mg/kg intraperitoneally 1 h prior and 3 times a week for two weeks, vs DMSO, p<0.05): Rescue of corneal endothelial cell loss
endothelial cell degeneration / UVA-induced corneal endothelial cell loss ([2]; mouse model of FECD, in vivo (FIGS. 11 and 12)): delayed the endothelial cell degeneration; also recorded: Rescue of UVA-induced corneal endothelial cell loss

CC(=O)N[C@@H](CS)C(=O)O [NAC, N-acetylcysteine]
morphological and molecular changes induced by UVA ([3]; UVA 1000 J/cm^2, in vivo (FIG. 10)): rescued
increase in MCEnC density vs 1,000 J/cm^2 UVA irradiation only ([3]; females): 1.7 fold
MCEnC density ([3]; females, no-NAC 855±115): 1,521±313 cells per square millimeter
endothelial cell density ([3]; male and female, 3 mo after UVA, ZO-1 immunostaining): significantly rescued
increase in MCEnC density vs 1,000 J/cm^2 UVA irradiation only ([3]; males): 1.6 fold
MCEnC density ([3]; males, no-NAC 944±136): 1,560±136 cells per square millimeter
CCT ([4]; 1 to 3 mo after 1,000 J/cm^2 UVA): remained close to the untreated baseline
CCT vs 1,000 J/cm^2 treated females ([4]; females, 1, 2, and 3 mo after 1,000 J/cm^2 UVA): significant decrease in CCT
CCT vs 1,000 J/cm^2 treated males ([4]; males, 2 wk and 1 and 3 mo after 1,000 J/cm^2 UVA): significant decrease in CCT
nDNA damage ([5]; both sexes): significantly rescued
mtDNA damage ([5]; females): persisted
ROS formed due to UVA (H2O2 in aqueous humor) [6]: significantly reduced
TUNEL-positive cells vs non-NAC-treated UVA irradiated mice [7]: significantly less TUNEL-positive cells

C[C@]12CC[C@@H]3c4ccc(O)c(O)c4CC[C@H]3[C@@H]1CC[C@@H]2O [4-OHE2, 4-hydroxyestradiol]
DNA lesions in the nuclear encoded β-globin gene [8]: 0.46 DNA lesions per 10 kb
mtDNA lesions [8]: 0.65 DNA lesions per 10 kb
